Assay results from patent US5449662A, “Atrial natriuretic peptide clearance inhibitors which resist degradation” (Scios Nova Inc., priority 1992, dated 1995).
Numbered stars: 1 amine (or outer) side, 2 acyl side, 3 side chain; on linkers, the order of the positions; unused ones are H or OH. Square brackets hold non-standard residues; d marks the D form. Peptide text beside a SMILES is read from it. * marks the point of attachment. X4 = O=C(NO)C(Cc1ccccc1)N(CC(=O)[*:2])[*:1]; γGlu = O=C(O)[C@H](CCC(=O)[*:2])N[*:1]; X2 = O=C(Cc1ccc(N[*:1])cc1)[*:2]; X3 = O=C(O)C(Cc1ccccc1)NCCC(=O)*; X1 = O=C(C(CS)Cc1ccccc1)*

Columns and labels:
Endopeptidase 24.11 = biological target: T1, Endopeptidase 24.11 (Rattus norvegicus, UniProt P07861); test: Inhibition of endopeptidase 24.11 (cleavage of rANP(99-126), HPLC); format: biochemical; conditions: for inhibition at 0.02 µM: 20 nM; for inhibition at 0.02 µM / inhibition at 0.1 µM / inhibition at 1 µM / inhibition at 10 µM: read-out: % Inhibition of Metabolite Formation; for inhibition at 0.1 µM: 100 nM
T1 construct: rat urine was collected and desalted on Sephadex G-25; from tissue; host or cells: rat urine, desalted on Sephadex G-25
T1 sequence (P07861 1-750): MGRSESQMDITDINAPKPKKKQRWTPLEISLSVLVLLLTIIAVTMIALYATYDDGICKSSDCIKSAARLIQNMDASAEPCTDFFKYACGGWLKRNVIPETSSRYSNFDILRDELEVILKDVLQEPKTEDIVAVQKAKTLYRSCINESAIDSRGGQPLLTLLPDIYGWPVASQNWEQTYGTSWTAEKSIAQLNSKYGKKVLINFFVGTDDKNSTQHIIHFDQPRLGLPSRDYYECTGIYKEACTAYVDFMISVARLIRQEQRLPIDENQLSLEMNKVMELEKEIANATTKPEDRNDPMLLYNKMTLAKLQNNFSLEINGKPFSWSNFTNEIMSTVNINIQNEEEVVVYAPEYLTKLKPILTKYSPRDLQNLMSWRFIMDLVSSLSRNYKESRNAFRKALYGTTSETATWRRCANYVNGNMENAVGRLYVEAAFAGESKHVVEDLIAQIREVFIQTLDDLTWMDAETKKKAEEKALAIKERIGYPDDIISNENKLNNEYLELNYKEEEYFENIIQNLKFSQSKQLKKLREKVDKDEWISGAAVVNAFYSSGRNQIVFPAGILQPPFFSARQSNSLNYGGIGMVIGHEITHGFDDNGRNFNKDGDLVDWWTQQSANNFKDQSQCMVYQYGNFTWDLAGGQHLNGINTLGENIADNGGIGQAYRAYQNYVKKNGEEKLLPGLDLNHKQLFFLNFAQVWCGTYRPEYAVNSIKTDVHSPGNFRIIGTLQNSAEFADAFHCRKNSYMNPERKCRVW
Experimental: Endopeptidase 24.11 inactivates ANP by cleavage at the Cys^105 -Phe^106 amide bond. The ability of the compounds of the invention to inhibit this degradation was assayed by a modification of the procedure of Ura, N., et al, Kidney Int (1987) 32:507-513 by substituting rANP(99-126) for bradykinin as a substrate.
Briefly, rat urine was collected and desalted on Sephadex G-25 as described by Ura (supra) and 4 ul of sample in 100 ul 0.1M Tris buffer, pH 7.2 containing aminopeptidase inhibitor bestatin (10 ug/ml), potato tuber carboxy peptidase inhibitor (10 ug/ml) and aprotinin (5,000 kalikrein inhibitory unit/ml) were incubated for 15 min at 37° C. The assay was then initiated by addition of 2-10 ug rANP(99-126) to a final volume of 0.5 ml and incubated at 10-20 min at 37° C. Termination of the reaction was accomplished by boiling, spinning and freezing.
Compounds to be tested for their ability to inhibit the endopeptidase were added to the preincubation mixture 15 min before addition of substrate.
The frozen samples, incubated with or without inhibitor, were thawed and analyzed by HPLC to determine the concentration of starting rANP(99-126) and its degradation product. HPLC analysis was conducted on Vydac C18 reverse phase HPLC column (4.6 mm ID×12.5 cm; 5 uM, 300A). A linear gradient of 15-35% acetonitrile containing 0.1% TFA was run at 1.0 ml/min on a Perkin-Elmer series 4 HPLC system. The effluent was monitored at 220 nm and the peptide peak heights measured.
The results were computed as the percent of the Cys^105 -Phe^106 cleavage metabolite peak in the test sample as compared to the peak height for this metabolite in the control.

[1] = biological target: T2, ANP clearance receptor on bovine aortic smooth muscle (BASM) cells (Bos taurus, UniProt P10730); test: BASM receptor binding assay (competition with I125 labeled rANP(102-126)); conditions: read-out: Ki(app)
T2 construct: endogenous in cells; host or cells: bovine aortic smooth muscle (BASM) cells
T2 sequence (P10730 42-537): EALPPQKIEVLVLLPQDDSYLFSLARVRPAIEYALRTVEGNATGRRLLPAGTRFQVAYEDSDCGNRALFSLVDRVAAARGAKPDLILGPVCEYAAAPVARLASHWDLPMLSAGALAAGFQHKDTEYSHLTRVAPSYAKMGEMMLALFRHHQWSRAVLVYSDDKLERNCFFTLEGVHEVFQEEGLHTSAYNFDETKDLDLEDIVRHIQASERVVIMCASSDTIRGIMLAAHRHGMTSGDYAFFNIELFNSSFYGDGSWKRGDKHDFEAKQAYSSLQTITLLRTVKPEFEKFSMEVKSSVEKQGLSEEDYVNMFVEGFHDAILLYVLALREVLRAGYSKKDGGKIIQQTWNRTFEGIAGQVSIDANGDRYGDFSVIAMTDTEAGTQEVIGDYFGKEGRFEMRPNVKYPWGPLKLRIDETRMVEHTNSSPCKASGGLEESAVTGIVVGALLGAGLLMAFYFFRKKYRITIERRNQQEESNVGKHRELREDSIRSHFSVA
From the text: (§1) The assay systems used are adapted from those of Schenk, D. B., et al, Biochem Biophys Res Commun (1985) 127:433-442 and Scarborough, R. M., J Biol Chem (1986) 261:12960-12964. These assays measure clearance receptor binding affinity through competition with ANP using the receptors on bovine aortic smooth muscle (BASM) or bovine aortic endothelial (BAE) cells. Also employed is the receptor binding affinity assay for the clearance receptor in isolated perfused rat kidney as described by Maack, T., et al, Science (1987) 238:675-679.

[2] = biological target: T3, clearance receptor in isolated perfused rat kidney (Rattus norvegicus, UniProt P41740); test: Rat kidney receptor binding assay (isolated perfused rat kidney); conditions: labeled compound 4 × 10^-12 M + competitor 1 × 10^-6 M; n = 2
T3 construct: the clearance receptor in isolated perfused rat kidney; from tissue; host or cells: isolated perfused rat kidney
T3 sequence (P41740 41-535): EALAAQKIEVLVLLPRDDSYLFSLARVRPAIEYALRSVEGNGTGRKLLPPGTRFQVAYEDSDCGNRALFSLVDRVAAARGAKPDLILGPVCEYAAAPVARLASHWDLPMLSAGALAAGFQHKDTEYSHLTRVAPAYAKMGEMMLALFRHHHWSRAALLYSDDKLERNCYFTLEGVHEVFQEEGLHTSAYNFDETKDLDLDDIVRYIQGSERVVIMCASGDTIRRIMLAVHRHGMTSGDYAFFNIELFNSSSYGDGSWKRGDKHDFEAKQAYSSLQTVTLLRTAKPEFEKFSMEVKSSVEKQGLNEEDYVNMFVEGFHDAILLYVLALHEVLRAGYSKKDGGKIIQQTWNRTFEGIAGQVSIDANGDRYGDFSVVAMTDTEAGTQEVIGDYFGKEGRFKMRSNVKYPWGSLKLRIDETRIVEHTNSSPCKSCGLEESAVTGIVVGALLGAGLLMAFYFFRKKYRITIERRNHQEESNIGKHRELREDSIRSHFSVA
From the text: as §1
In the rat kidney receptor binding assay, the native 28-residue labeled ANP was used: I^125 labeled rANP(99-126), with the label linked to tyrosine at 126. The results of this assay are shown in Table 2 as the ratio of bound-to-free labeled rANP(99-126) in the presence and absence of competing compound.

Molecule | inhibition at 10 µM (Endopeptidase 24.11) [%] | Ki [1] [nM] | also measured
CC(C)C[C@H](NP(=O)(O)O[C@@H]1O[C@@H](C)[C@H](O)[C@@H](O)[C@H]1O)C(=O)N[C@@H](Cc1c[nH]c2ccccc12)C(=O)O [Phosphoramidon, phosphoramidon, reference compound] | 97 | – | inhibition at 0.02 µM (Endopeptidase 24.11): 0%; inhibition at 0.1 µM (Endopeptidase 24.11): 30%; inhibition at 1 µM (Endopeptidase 24.11): 80%
CC[C@H](C)[C@H](NC(=O)[C@H](CCCNC(=N)N)NC(=O)[C@H](CC(=O)O)NC(=O)[C@@H](NC(=O)[C@H](CCCNC(=N)N)NC(=O)Cc1ccc(NC(=O)C(CS)Cc2ccccc2)cc1)[C@@H](C)CC)C(N)=O (stereo partly drawn) [Analog 122, MBP-4-APA--R--I--D--R--I--NH2] (X1-[X2]RIDRI-NH2) | 97 | 10.9 | inhibition at 0.02 µM (Endopeptidase 24.11): 12%; inhibition at 0.1 µM (Endopeptidase 24.11): 25%; inhibition at 1 µM (Endopeptidase 24.11): 72%
CC[C@H](C)[C@H](NC(=O)[C@H](CCCNC(=N)N)NC(=O)[C@H](CC(=O)O)NC(=O)[C@@H](NC(=O)[C@H](CCCNC(=N)N)NC(=O)CNC(=O)[C@@H](CC(=O)O)NC(=O)C(CS)Cc1ccccc1)[C@@H](C)CC)C(N)=O (some centres unmarked) [Analog 23] (X1-[dD]GRIDRI-NH2) | – | 115 | –
CC[C@H](C)[C@H](NC(=O)[C@H](CCCNC(=N)N)NC(=O)[C@H](CC(=O)O)NC(=O)[C@@H](NC(=O)[C@H](CCCNC(=N)N)NC(=O)CNC(=O)CNC(=O)[C@H](Cc1ccccc1)NC(Cc1ccccc1)C(=O)O)[C@@H](C)CC)C(N)=O (some centres unmarked) [Analog 436] | – | 27.3 | –
CC[C@H](C)[C@H](NC(=O)[C@H](CCCNC(=N)N)NC(=O)[C@H](CC(=O)O)NC(=O)[C@@H](NC(=O)[C@H](CCCNC(=N)N)NC(=O)CNC(=O)[C@H](CC(=O)O)NC(=O)[C@H](Cc1ccccc1)NC(Cc1ccccc1)C(=O)O)[C@@H](C)CC)C(N)=O (some centres unmarked) [Analog 463] | – | 225 | –
CC[C@H](C)[C@H](NC(=O)[C@H](CCCNC(=N)N)NC(=O)[C@H](CC(=O)O)NC(=O)[C@@H](NC(=O)[C@H](CCCNC(=N)N)NC(=O)CNC(=O)CNC(=O)C(CS)Cc1ccccc1)[C@@H](C)CC)C(N)=O (stereo partly drawn) [Analog 1, MBP-G-G-R-I-D-R-I-NH2] (X1-GGRIDRI-NH2) | 92 | 19.6 | inhibition at 0.02 µM (Endopeptidase 24.11): 0%; inhibition at 0.1 µM (Endopeptidase 24.11): 23%; inhibition at 1 µM (Endopeptidase 24.11): 45%; IC50 (Endopeptidase 24.11; approximate, from Table 3, read-out: ED50 of inhibition): ~1000 nM
O=C(O)CNC(=O)C(CS)Cc1ccccc1 (centres unmarked) [Thiorphan, thiorphan, reference compound] | 92 | – | inhibition at 0.02 µM (Endopeptidase 24.11): 12%; inhibition at 0.1 µM (Endopeptidase 24.11): 53%; inhibition at 1 µM (Endopeptidase 24.11): 67%
CC[C@H](C)[C@H](NC(=O)[C@H](CCCNC(=N)N)NC(=O)[C@H](CC(=O)O)NC(=O)[C@@H](NC(=O)[C@H](CCCNC(=N)N)NC(=O)CNC(=O)CNC(Cc1ccccc1)C(=O)O)[C@@H](C)CC)C(N)=O (some centres unmarked) [Analog 364] | – | 66.9 | –
CC[C@H](C)[C@H](NC(=O)[C@H](CCCNC(=N)N)NC(=O)[C@H](CC(=O)O)NC(=O)[C@@H](NC(=O)[C@H](CCCNC(=N)N)NC(=O)Cc1ccc(NC(=O)[C@H](Cc2ccccc2)NC(Cc2ccccc2)C(=O)O)cc1)[C@@H](C)CC)C(N)=O (stereo partly drawn) [Analog 445, F[N]F-4-APA-R-I-D-R-I-NH2] | 0 | 6.5 | –
CC[C@H](C)[C@H](NC(=O)[C@H](CCCNC(=N)N)NC(=O)[C@H](CC(=O)O)NC(=O)[C@@H](NC(=O)[C@H](CCCNC(=N)N)NC(=O)CNC(=O)CNC(Cc1ccccc1)C(=O)NO)[C@@H](C)CC)C(N)=O (some centres unmarked) [Analog 702] (H-[X4]GRIDRI-NH2) | – | 4.6 | –
F--[N]--F--G--G--R--I--D--R--I--NH2 [Analog 436] | – | – | Ratio of Bound/Free (125I)rANP(99-126), Whole Kidney [2]: 1.31
CC[C@H](C)[C@H](NC(=O)[C@H](CCCNC(=N)N)NC(=O)[C@H](CC(=O)O)NC(=O)[C@@H](NC(=O)[C@H](CCCNC(=N)N)NC(=O)CNC(=O)[C@H](CC(=O)O)NC(=O)C(CS)Cc1ccccc1)[C@@H](C)CC)C(N)=O (some centres unmarked) [Analog 12] (X1-DGRIDRI-NH2) | – | 207 | –
CC[C@H](C)[C@H](NC(=O)[C@H](CCCNC(=N)N)NC(=O)[C@H](CC(=O)O)NC(=O)[C@@H](NC(=O)[C@H](CCCNC(=N)N)NC(=O)CNC(=O)CCNC(Cc1ccccc1)C(=O)O)[C@@H](C)CC)C(N)=O (some centres unmarked) [Analog 427] (X3-GRIDRI-NH2) | – | 11.5 | –
CC[C@H](C)[C@H](NC(=O)[C@H](CCCNC(=N)N)NC(=O)[C@H](CC(=O)O)NC(=O)[C@@H](NC(=O)[C@H](CCCNC(=N)N)NC(=O)CC[C@H](NC(=O)[C@H](Cc1ccccc1)NC(CCc1ccccc1)C(=O)O)C(=O)O)[C@@H](C)CC)C(N)=O (some centres unmarked) [Analog 544] | – | 58.2 | –
rANP(99-126): native 28-residue rat ANP, unlabeled competitor in the rat kidney binding assay [reference compound] | – | – | Ratio of Bound/Free (125I)rANP(99-126), Whole Kidney [2]: 0.56
CC[C@H](C)[C@H](NC(=O)[C@H](CCCNC(=N)N)NC(=O)[C@H](CC(=O)O)NC(=O)[C@@H](NC(=O)[C@H](CCCNC(=N)N)NC(=O)CC[C@H](NC(=O)C(CS)Cc1ccccc1)C(=O)O)[C@@H](C)CC)C(N)=O (some centres unmarked) [Analog 78] ({X1-γGlu}-RIDRI-NH2) | – | 202 | –
